Test results as given in article PMC5829251, “NAD^+ analog reveals PARP-1 substrate-blocking mechanism and allosteric communication from catalytic center to DNA-binding domains” (Nature Communications, 2018).

Experiments:
PARP-2 = target: T1, PARP-2 (Homo sapiens, UniProt Q9UGN5); assay: DSF, full-length PARP-2 with or without DNA; type: binding; conditions: for TM: Figure 3c, BAD 1250 μM, in °C (unit assumed)
T1 construct: PARP-2 (isoform 2, residues 1–570) was cloned in pET28 vector; made in house
T1 sequence (Q9UGN5 1-570 isoform Q9UGN5-2): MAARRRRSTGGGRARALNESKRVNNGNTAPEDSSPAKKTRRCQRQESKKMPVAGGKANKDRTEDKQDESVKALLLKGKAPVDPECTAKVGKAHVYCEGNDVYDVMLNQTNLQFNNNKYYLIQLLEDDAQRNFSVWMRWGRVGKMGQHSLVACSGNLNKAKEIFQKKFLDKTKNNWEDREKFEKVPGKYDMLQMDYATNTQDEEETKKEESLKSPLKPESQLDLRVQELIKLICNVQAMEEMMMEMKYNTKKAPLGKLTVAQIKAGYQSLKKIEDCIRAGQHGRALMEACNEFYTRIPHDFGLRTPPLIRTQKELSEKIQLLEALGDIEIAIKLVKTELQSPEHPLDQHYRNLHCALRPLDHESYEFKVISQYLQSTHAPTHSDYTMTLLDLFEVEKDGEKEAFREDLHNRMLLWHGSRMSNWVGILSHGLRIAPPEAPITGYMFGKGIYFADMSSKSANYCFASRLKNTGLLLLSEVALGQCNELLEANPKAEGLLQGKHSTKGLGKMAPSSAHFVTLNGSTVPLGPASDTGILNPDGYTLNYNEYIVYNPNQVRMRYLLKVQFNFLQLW
Method: (§1) DSF experiments were performed as described, [13] using 5 µM protein, 2.5 µM DNA when indicated and various concentrations of compound (BAD, carba-NAD^+, benzamide, and ADP-ribose) as indicated in Fig. 1 and Fig. 3. Experiments were performed on a Roche LightCycler 480 RT-PCR. Reactions including DNA were performed with a 26- or 28-base pair (bp) unphosphorylated oligonucleotide for PARP-1, a 28-bp 5´-phosphorylated (5´P) oligonucleotide for PARP-2, and a 47-bp oligonucleotide including a central 5´P nick for PARP-3^13 in the following buffer: 25 mM Hepes pH 8.0, 150 mM NaCl, 1 mM EDTA, and 0.1 mM TCEP. Reactions with PARP-3 were conducted at lower ionic strength to allow binding to DNA as described (25 mM Hepes pH 8.0, 50 mM NaCl, 1 mM EDTA and 0.1 mM TCEP)[13]. ΔTM values were calculated by subtracting the TM determined for the protein in the absence of compound from the TM determined in the presence of compound. Experiments were performed in triplicate and a Boltzmann sigmoid was fit to the data to determine the TM values (KaleidaGraph).

Tankyrase 1 CAT = target: T2, Tankyrase 1 CAT (Homo sapiens, UniProt O95271); assay: DSF, Tankyrase 1 CAT; type: binding
T2 construct: Tankyrase 1 CAT (residues 1093–1327) was cloned in pET24; made in house
T2 sequence (O95271 1093-1327): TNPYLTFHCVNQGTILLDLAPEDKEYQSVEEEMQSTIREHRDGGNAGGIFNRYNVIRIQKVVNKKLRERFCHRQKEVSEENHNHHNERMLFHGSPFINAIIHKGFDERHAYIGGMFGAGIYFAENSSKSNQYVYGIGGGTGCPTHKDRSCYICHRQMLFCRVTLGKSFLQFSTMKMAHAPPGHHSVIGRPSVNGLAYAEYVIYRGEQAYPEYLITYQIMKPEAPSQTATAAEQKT
Method: as §1

full-length PARP-1 WT = target: T3, full-length PARP-1 WT (Homo sapiens, UniProt P09874); assay: DSF, full-length PARP-1 WT with or without DNA; type: binding; conditions: BAD 1250 μM; for TM: in °C (unit assumed)
T3 construct: Full-length PARP-1 WT (residues 1–1014) was cloned in pET28 vector; made in house; host or cells: E. coli
T3 sequence (P09874 whole entry, the tested form may be a part): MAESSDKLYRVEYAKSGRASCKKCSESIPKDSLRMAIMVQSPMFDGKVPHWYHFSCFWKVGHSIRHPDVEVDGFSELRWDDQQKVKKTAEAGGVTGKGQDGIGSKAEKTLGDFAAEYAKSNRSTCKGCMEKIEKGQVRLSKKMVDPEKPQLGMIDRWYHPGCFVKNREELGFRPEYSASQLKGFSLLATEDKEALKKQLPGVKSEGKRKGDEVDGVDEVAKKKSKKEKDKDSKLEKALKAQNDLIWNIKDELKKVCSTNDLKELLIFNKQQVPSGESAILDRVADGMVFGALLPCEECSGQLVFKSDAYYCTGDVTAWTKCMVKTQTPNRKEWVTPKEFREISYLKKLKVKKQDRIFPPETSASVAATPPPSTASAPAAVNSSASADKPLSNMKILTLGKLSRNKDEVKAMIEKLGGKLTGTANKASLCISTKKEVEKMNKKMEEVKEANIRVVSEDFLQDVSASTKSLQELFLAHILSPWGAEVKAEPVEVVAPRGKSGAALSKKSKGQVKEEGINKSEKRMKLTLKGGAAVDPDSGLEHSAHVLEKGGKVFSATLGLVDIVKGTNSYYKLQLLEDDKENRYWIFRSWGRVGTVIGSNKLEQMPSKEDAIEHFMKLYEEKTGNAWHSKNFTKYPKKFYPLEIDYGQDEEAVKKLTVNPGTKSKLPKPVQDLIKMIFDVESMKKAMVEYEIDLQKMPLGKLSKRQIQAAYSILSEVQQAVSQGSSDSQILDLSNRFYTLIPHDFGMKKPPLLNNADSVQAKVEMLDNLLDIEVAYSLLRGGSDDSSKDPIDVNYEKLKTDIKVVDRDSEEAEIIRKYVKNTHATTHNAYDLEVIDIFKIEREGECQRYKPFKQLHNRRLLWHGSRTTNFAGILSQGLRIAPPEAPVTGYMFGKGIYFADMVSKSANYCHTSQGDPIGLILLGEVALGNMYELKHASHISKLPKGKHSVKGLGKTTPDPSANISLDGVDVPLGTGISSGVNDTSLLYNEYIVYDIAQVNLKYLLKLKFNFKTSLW
Method: as §1

PARP-3 = target: T4, PARP-3 (Homo sapiens, UniProt Q9Y6F1); assay: DSF, full-length PARP-3 with or without DNA; type: binding; conditions: for TM: Figure 3c, BAD 1250 μM, in °C (unit assumed)
T4 construct: PARP-3 (isoform b, residues 1–533) was cloned in pDEST17 vector; made in house
T4 sequence (Q9Y6F1 1-533): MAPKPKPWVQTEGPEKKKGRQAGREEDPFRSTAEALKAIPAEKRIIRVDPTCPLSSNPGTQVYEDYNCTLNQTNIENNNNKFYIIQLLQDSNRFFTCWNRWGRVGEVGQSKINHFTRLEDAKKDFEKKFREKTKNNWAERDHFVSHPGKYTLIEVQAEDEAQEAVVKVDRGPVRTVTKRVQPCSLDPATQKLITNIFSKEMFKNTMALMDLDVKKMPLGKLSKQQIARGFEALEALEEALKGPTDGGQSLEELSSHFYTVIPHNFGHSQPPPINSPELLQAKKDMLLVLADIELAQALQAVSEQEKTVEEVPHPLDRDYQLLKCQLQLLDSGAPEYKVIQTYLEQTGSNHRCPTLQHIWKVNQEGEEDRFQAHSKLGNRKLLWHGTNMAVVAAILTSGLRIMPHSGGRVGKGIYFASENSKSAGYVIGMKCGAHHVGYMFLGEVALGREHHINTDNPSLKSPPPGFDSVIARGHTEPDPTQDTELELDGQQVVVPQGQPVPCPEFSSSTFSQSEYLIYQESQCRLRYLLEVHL
Method: as §1

[1] = target: T5, PARP-1 double mutant D766/D770A (Homo sapiens, UniProt P09874, D766A/D770A); assay: DSF, full-length PARP-1 D766/D770A; type: binding; conditions: BAD 1250 μM
T5 construct: Full-length PARP-1 WT (residues 1–1014) was cloned in pET28 vector and site-directed mutagenesis was performed; made in house; host or cells: E. coli
T5 sequence (P09874 whole entry D766A/D770A, the tested form may be a part): as the sequence (P09874 whole entry, the tested form may be a part) above, with D766A, D770A counted along it
Method: as §1

PARP-1 K633A = target: T6, PARP-1 K633A (Homo sapiens, UniProt P09874, K633A); assay: DSF, full-length PARP-1 K633A with or without DNA; type: binding; conditions: for TM: Figure 3b, BAD 1250 μM, in °C (unit assumed)
T6 construct: Full-length PARP-1 WT (residues 1–1014) was cloned in pET28 vector and site-directed mutagenesis was performed; made in house; host or cells: E. coli
T6 sequence (P09874 whole entry K633A, the tested form may be a part): as the sequence (P09874 whole entry, the tested form may be a part) above, with K633A counted along it
Method: as §1

PARP-1 = target: T7, PARP-1 (Homo sapiens, UniProt P09874); assay: SDS-PAGE PARP-1 activity assay (DNA-dependent automodification); type: biochemical; conditions: 1 μM DNA, 1 μM protein, 50 μM NAD+; concentration series
T7 construct: Full-length PARP-1 WT (residues 1–1014) was cloned in pET28 vector; made in house; host or cells: E. coli
T7 sequence (P09874 whole entry, the tested form may be a part): as the sequence (P09874 whole entry, the tested form may be a part) above
Method: The SDS-PAGE activity assay was performed as described[28] using 1 µM protein, 1 μM DNA (18 bp oligonucleotide), 50 µM NAD^+, and various concentrations of BAD and carba-NAD^+ as indicated. Reactions were incubated for 5 min before quenching with SDS-PAGE loading buffer.

SMILES: NC(=O)c1cccc(C2OC(COP(=O)(O)OP(=O)(O)OCC3OC(n4cnc5c(N)ncnc54)C(O)C3O)C(O)C2O)c1 (stereo not drawn) [BAD, benzamide adenine dinucleotide]
- TM (PARP-2; PARP-2, no DNA, TM without BAD 47.71): 47.47
- TM (PARP-2; PARP-2 with DNA (2.5 μM, 28-bp duplex 5'P), TM without BAD 45.44): 47.28
- evidence of BAD binding in the DSF assay (PARP-2; PARP-2, with or without DNA bearing 5'P): only showed evidence of BAD binding in the presence of activating DNA
- binding to BAD based on the DSF analysis (Tankyrase 1 CAT; CAT of tankyrase 1 (no HD)): capable of binding
- TM (Tankyrase 1 CAT; Figure 3d, TNK CAT 5 μM, BAD 4 mM, TM without BAD 53.71, in °C (unit assumed)): 57.42
- increase in the TM of full-length PARP-1 owing to BAD (full-length PARP-1 WT; with or without DNA (2.5 μM)): observed only with DNA present
- TM (full-length PARP-1 WT; Figure 3a, WT with DNA (2.5 μM, 26-bp duplex), TM without BAD 44.35): 47.65
- TM (full-length PARP-1 WT; Figure 3a, WT, no DNA, TM without BAD 48.17): 48.19
- TM (full-length PARP-1 WT; Figure 3b, WT with DNA (2.5 μM, 26-bp duplex), TM without BAD 42.85): 45.99
- TM (full-length PARP-1 WT; Figure 3b, WT, no DNA, TM without BAD 47.41): 47.09
- TM (full-length PARP-1 WT; Figure 3c, PARP-1, no DNA, TM without BAD 47.93): 48.15
- TM (full-length PARP-1 WT; Figure 3c, PARP-1 with DNA (2.5 μM, 28-bp duplex), TM without BAD 44.45): 48.03
- TM (PARP-3; PARP-3, no DNA, TM without BAD 35.81): 35.54
- TM (PARP-3; PARP-3 with DNA (2.5 μM, 47-bp duplex with central 5'P nick), TM without BAD 39.70): 41.02
- evidence of BAD binding in the DSF assay (PARP-3; PARP-3, with or without DNA bearing 5'P): only showed evidence of BAD binding in the presence of activating DNA
- TM ([1]; Figure 3a, no DNA, TM without BAD 45.94): 48.5 °C
- TM change in the presence of BAD ([1]; did not require the presence of DNA): increase in TM
- TM (PARP-1 K633A; K633A with DNA (2.5 μM), TM without BAD 44.76): 44.86
- TM (PARP-1 K633A; K633A, no DNA, TM without BAD 45.50): 45.32
- TM shift in the presence of BAD and DNA (PARP-1 K633A; K633A (Zn3–WGR–HD interface mutation), relative to WT): substantial reduction in TM shift
- concentration at which inhibition of DNA-dependent PARP-1 automodification activity starts (PARP-1): 50 µM
